# What was measured:
# [1] = Volume of distribution at steady state in patient (6 patients) with moderate renal insufficiency at 1.4 +/- 0.1 g/m'2 administered as pulse therapy with 1 hr infusion by HPLC analysis; details: human, in vivo, iv, 1.4 g/m'2
# clinical [2] = details: human, in vivo, iv, 0.83 g/m'2
# Description: Volume of distribution at steady state in patient ( 12 patients) with normal renal function at 0.83 +/- 0.05 g/m'2 administered as pulse therapy with 1 hr infusion by HPLC analysis
# [3] = Drug recovery in normal human urine
# clinical [4] = details: human, in vivo, iv, 1.1 g/m'2
# Description: Elimination half life in patient (6 patients) with severe renal insufficiency at 1.1 +/- 0.2 g/m'2 administered as pulse therapy with 1 hr infusion by HPLC analysis
# clinical [5] = details: human, in vivo, iv, 0.83 g/m'2; remark: listed apart in the source
# Description: Renal clearance in patient ( 12 patients) with normal renal function at 0.83 +/- 0.05 g/m'2 administered as pulse therapy with 1 hr infusion by HPLC analysis
# clinical [6] = details: human, in vivo, iv, 1.1 g/m'2; remark: listed apart in the source
# Description: Systemic clearance in patient (6 patients) with severe renal insufficiency at 1.1 +/- 0.2 g/m'2 administered as pulse therapy with 1 hr infusion by HPLC analysis
# [7] = Volume of distribution at steady state in patient (6 patients) with severe renal insufficiency at 1.1 +/- 0.2 g/m'2 administered as pulse therapy with 1 hr infusion by HPLC analysis; details: human, in vivo, iv, 1.1 g/m'2
# clinical [8] = details: human, in vivo, iv, 0.83 g/m'2; remark: listed apart in the source
# Description: Elimination half life in patient ( 12 patients) with normal renal function at 0.83 +/- 0.05 g/m'2 administered as pulse therapy with 1 hr infusion by HPLC analysis
# clinical [9] = details: human, in vivo, iv, 1.2 g/m'2
# Description: Renal clearance in patient (6 patients) with hemodialysis-dependent end-stage renal disease at 1.2 +/- 0.4 g/m'2 administered as pulse therapy with 1 hr infusion followed by hemodialysis for 3 hrs started 7 hrs post dose measured during hemodialysis treatment by HPLC analysis
# [10] = Volume of distribution at steady state in patient (6 patients) with hemodialysis-dependent end-stage renal disease at 1.2 +/- 0.4 g/m'2 administered as pulse therapy with 1 hr infusion followed by hemodialysis for 3 hrs started 7 hrs post dose measured during hemodialysis treatment by HPLC analysis; details: human, in vivo, iv, 1.2 g/m'2
# clinical [11] = details: human, in vivo, iv, 1.2 g/m'2; remark: listed apart in the source
# Description: Elimination half life in patient (6 patients) with hemodialysis-dependent end-stage renal disease at 1.2 +/- 0.4 g/m'2 administered as pulse therapy with 1 hr infusion followed by hemodialysis for 3 hrs started 7 hrs post dose measured during hemodialysis treatment by HPLC analysis
# clinical [12] = details: human, in vivo, iv, 1.1 g/m'2; remark: listed apart in the source
# Description: Renal clearance in patient (6 patients) with severe renal insufficiency at 1.1 +/- 0.2 g/m'2 administered as pulse therapy with 1 hr infusion by HPLC analysis
# clinical [13] = details: human, in vivo, iv, 0.83 g/m'2; remark: listed apart in the source
# Description: Systemic clearance in patient ( 12 patients) with normal renal function at 0.83 +/- 0.05 g/m'2 administered as pulse therapy with 1 hr infusion by HPLC analysis
# [14] = Drug excretion in urine of patient (6 patients) with severe renal insufficiency at 1.1 +/- 0.2 g/m'2 administered as pulse therapy with 1 hr infusion by HPLC analysis; details: human, iv, 1.1 g/m'2
# clinical [15] = details: human, in vivo, iv, 1.2 g/m'2; remark: listed apart in the source
# Description: Systemic clearance in patient (6 patients) with hemodialysis-dependent end-stage renal disease at 1.2 +/- 0.4 g/m'2 administered as pulse therapy with 1 hr infusion followed by hemodialysis for 3 hrs started 7 hrs post dose measured during hemodialysis treatment by HPLC analysis
# clinical [16] = details: human, in vivo, iv, 1.4 g/m'2
# Description: Renal clearance in patient (6 patients) with moderate renal insufficiency at 1.4 +/- 0.1 g/m'2 administered as pulse therapy with 1 hr infusion by HPLC analysis
# [17] = Drug excretion in urine of patient (6 patients) with moderate renal insufficiency at 1.4 +/- 0.1 g/m'2 administered as pulse therapy with 1 hr infusion by HPLC analysis; details: human, iv, 1.4 g/m'2
# clinical [18] = details: human, in vivo, iv, 1.4 g/m'2; remark: listed apart in the source
# Description: Systemic clearance in patient (6 patients) with moderate renal insufficiency at 1.4 +/- 0.1 g/m'2 administered as pulse therapy with 1 hr infusion by HPLC analysis
# [19] = Drug excretion in urine of patient ( 12 patients) with normal renal function at 0.83 +/- 0.05 g/m'2 administered as pulse therapy with 1 hr infusion by HPLC analysis; details: human, iv, 0.83 g/m'2
# clinical [20] = details: human, in vivo, iv, 1.4 g/m'2; remark: listed apart in the source
# Description: Elimination half life in patient (6 patients) with moderate renal insufficiency at 1.4 +/- 0.1 g/m'2 administered as pulse therapy with 1 hr infusion by HPLC analysis
# [21] = Drug excretion in dialysate of patient (4 patients) with chronic renal failure at 100 mg, iv administered over 10 mins followed by hemodialysis for 4 hrs measured during hemodialysis treatment by GLC analysis; details: human
# [22] = Drug excretion in urine of patient (6 patients) with hemodialysis-dependent end-stage renal disease at 1.2 +/- 0.4 g/m'2 administered as pulse therapy with 1 hr infusion followed by hemodialysis for 3 hrs started 7 hrs post dose measured during hemodialysis treatment by HPLC analysis; details: human, iv, 1.2 g/m'2
smiles,measurement,setting,value
O=P1(N(CCCl)CCCl)NCCCO1 (configuration not stated) [CYCLOPHOSPHAMIDE ANHYDROUS],Vd at 1 h,[1],0.36 L/kg
same,Vd at 1 h,clinical [2],0.49 L/kg
same,dose excreted,[3],≤ 25%
same,half-life at 1 h,clinical [4],7.3 h
same,CL renal at 1 h,clinical [5],14.9 mL/min
same,clearance at 1 h,clinical [6],47 mL/min
same,Vd at 1 h,[7],0.36 L/kg
same,half-life at 1 h,clinical [8],4.8 h
same,CL renal at 7 h,clinical [9],2.1 mL/min
same,Vd,[10],0.49 L/kg
same,half-life,clinical [11],7.3 h
same,CL renal at 1 h,clinical [12],2.4 mL/min
same,clearance at 1 h,clinical [13],79 mL/min
same,dose excreted at 1 h,[14],5.6%
same,clearance,clinical [15],64 mL/min
same,CL renal at 1 h,clinical [16],3.4 mL/min
same,dose excreted at 1 h,[17],5.8%
same,clearance at 1 h,clinical [18],57 mL/min
same,dose excreted at 1 h,[19],19.1%
same,half-life at 1 h,clinical [20],6.4 h
same,dose excreted at 4 h,[21],37%
same,dose excreted,[22],3%
